Measurements published in patent publication US20230085307A1, “PYRIDAZINONE COMPOUND AND HERBICIDE” (NISSAN CHEMICAL CORPORATION, priority 2019, published 2023).

Assays:
[1] = system: southern crabgrass; experiment: Test Example 5: herbicidal effect by foliage application, plastic box (Table 20, symbol F); type: in vivo, southern crabgrass (Digitaria ciliaris); conditions: foliage application, 270 g/ha, 3 weeks after application
Procedure, shortened: (§1)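 Plants were sown into sterilized diluvial soil under about 1.5 cm cover and kept in a greenhouse at 25° C. to 30° C. Fourteen days on, foliage received an even spray of the diluted emulsion. Herbicidal or crop effect was judged three weeks afterwards.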

[2] = system: green foxtail; experiment: Test Example 5: herbicidal effect by foliage application, plastic box (Table 20, symbol G); type: in vivo, green foxtail (Setaria viridis); conditions: foliage application, 270 g/ha, 3 weeks after application
Procedure, shortened: as §1

[3] = system: barnyard grass; experiment: Test Example 5: herbicidal effect by foliage application, plastic box (Table 20, symbol H); type: in vivo, barnyard grass (Echinochloa crus-galli); conditions: foliage application, 270 g/ha, 3 weeks after application
Procedure, shortened: as §1

[4] = system: wild oat; experiment: Test Example 5: herbicidal effect by foliage application, plastic box (Table 20, symbol I); type: in vivo, wild oat (Avena fatua); conditions: foliage application, 270 g/ha, 3 weeks after application
Procedure, shortened: as §1

[5] = system: blackgrass; experiment: Test Example 5: herbicidal effect by foliage application, plastic box (Table 20, symbol J); type: in vivo, blackgrass (Alopecurus myosuroides); conditions: foliage application, 270 g/ha, 3 weeks after application
Procedure, shortened: as §1

[6] = system: Italian ryegrass; experiment: Test Example 5: herbicidal effect by foliage application, plastic box (Table 20, symbol K); type: in vivo, Italian ryegrass (Lolium multiflorum); conditions: foliage application, 270 g/ha, 3 weeks after application
Procedure, shortened: as §1

[7] = system: windgrass; experiment: Test Example 5: herbicidal effect by foliage application, plastic box (Table 20, symbol L); type: in vivo, windgrass (Apera spica-venti); conditions: foliage application, 270 g/ha, 3 weeks after application
Procedure, shortened: as §1

[8] = system: velvetleaf; experiment: Test Example 5: herbicidal effect by foliage application, plastic box (Table 20, symbol M); type: in vivo, velvetleaf (Abutilon theophrasti); conditions: foliage application, 270 g/ha, 3 weeks after application
Procedure, shortened: as §1

[9] = system: lambsquarters; experiment: Test Example 5: herbicidal effect by foliage application, plastic box (Table 20, symbol O); type: in vivo, lambsquarters (Chenopodium album); conditions: foliage application, 270 g/ha, 3 weeks after application
Procedure, shortened: as §1

[10] = system: false cleavers; experiment: Test Example 5: herbicidal effect by foliage application, plastic box (Table 20, symbol Q); type: in vivo, false cleavers (Galium spurium); conditions: foliage application, 270 g/ha, 3 weeks after application
From the text: [Test Example 5] Herbicidal Effect Test by Foliage Application
Sterilized diluvial soil was placed in a plastic box having a length of 21 cm, a width of 13 cm, and a depth of 7 cm. The seeds of each of southern crabgrass, green foxtail, barnyard grass, wild oat, blackgrass, Italian ryegrass, windgrass, velvetleaf, redroot pigweed, lambsquarters, chickweed, false cleavers, persian speedwell, corn, soybean, rice, wheat, beet, and rapeseed were sowed in a spot-like manner and covered with the soil having a thickness of about 1.5 cm. Thereafter, the plants were grown in a greenhouse at 25° C. to 30° C. After 14-day growth of the plants, the emulsion agent of the compound of the present invention prepared according to Formulation Example 2 was diluted with water so as to achieve a predetermined herbicide amount, and the diluted emulsion agent was uniformly applied to a foliage part with a small-sized spray. Three weeks after the herbicide application, the effect of the herbicide on each plant was evaluated according to the criteria of Test Example 1.

[11] = system: persian speedwell; experiment: Test Example 5: herbicidal effect by foliage application, plastic box (Table 20, symbol R); type: in vivo, Persian speedwell (Veronica persica); conditions: foliage application, 270 g/ha, 3 weeks after application
Procedure, shortened: as §1

[12] = system: late watergrass; experiment: Test Example 1: herbicidal activity, application before weed generation under submerged conditions (Table 16, symbol A); type: in vivo, late watergrass (Echinochloa oryzicola); conditions: 320 g/ha applied herbicide
Procedure, shortened: (§2)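 Alluvial soil was flooded to 4 cm depth, weed seeds were sown mixed and 2.5-leaf rice seedlings were transplanted. On sowing day, the compound's emulsion, diluted in water to a set dose, was applied to the water surface. Plants grew at 25–30 °C and were scored 0–5 after three weeks.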

[13] = system: Japanese bulrush; experiment: Test Example 1: herbicidal activity, application before weed generation under submerged conditions (Table 16, symbol B); type: in vivo, Japanese bulrush (Schoenoplectus juncoides); conditions: 320 g/ha applied herbicide
Procedure, shortened: as §2

[14] = system: oval-leafed pondweed; experiment: Test Example 1: herbicidal activity, application before weed generation under submerged conditions (Table 16, symbol C); type: in vivo, oval-leafed pondweed (Monochoria vaginalis); conditions: 320 g/ha applied herbicide
Procedure, shortened: as §2

[15] = system: late watergrass; experiment: Test Example 2: herbicidal activity, application during weed generation under submerged conditions (Table 17, symbol A); type: in vivo, late watergrass (Echinochloa oryzicola); conditions: AAH 320 g/ha; application during weed generation, submerged conditions
Procedure, shortened: (§3)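 Mixed weed seedlings in alluvial soil under a 4 cm water layer, greenhouse-grown at 25–30° C. Compound given as a diluted emulsion into the floodwater at the 1–2 leaf stage; response graded after three weeks.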

[16] = system: Japanese bulrush; experiment: Test Example 2: herbicidal activity, application during weed generation under submerged conditions (Table 17, symbol B); type: in vivo, Japanese bulrush (Schoenoplectus juncoides); conditions: AAH 320 g/ha; application during weed generation, submerged conditions
Procedure, shortened: as §3

[17] = system: oval-leafed pondweed; experiment: Test Example 2: herbicidal activity, application during weed generation under submerged conditions (Table 17, symbol C); type: in vivo, oval-leafed pondweed (Monochoria vaginalis); conditions: AAH 320 g/ha; application during weed generation, submerged conditions
Procedure, shortened: as §3

[18] = system: barnyard grass; experiment: Test Example 3: herbicidal effect by foliage application, Wagner pot (Table 18, symbol H); type: in vivo, barnyard grass (Echinochloa crus-galli); conditions: amount of applied herbicide 320 g/ha
Procedure, shortened: (§4)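 Plants were sown in alluvial soil held under 0.1–0.5 cm standing water and grown 14 days in a greenhouse at 25–30 °C. An emulsifiable formulation, water-diluted to the set dose, was then sprayed onto the foliage, and effects were scored three weeks later using previously defined criteria.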

[19] = system: Chinese sprangletop; experiment: Test Example 3: herbicidal effect by foliage application, Wagner pot (Table 18, symbol D); type: in vivo, chinese sprangletop (Leptochloa chinensis); conditions: amount of applied herbicide 320 g/ha
Procedure, shortened: as §4

[20] = system: rice flat sedge; experiment: Test Example 3: herbicidal effect by foliage application, Wagner pot (Table 18, symbol E); type: in vivo, rice flat sedge (Cyperus iria); conditions: amount of applied herbicide 320 g/ha
Procedure, shortened: as §4

[21] = system: southern crabgrass; experiment: Test Example 4: herbicidal effect by soil treatment (Table 19, symbol F); type: in vivo, southern crabgrass (Digitaria ciliaris); conditions: amount of applied herbicide 320 g/ha
Procedure, shortened: (§5)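 In this soil treatment, the formulated compound reached the seeds only through the soil: seeds were buried about 1.5 cm deep in sterilized diluvial soil, then the diluted emulsion was sprayed over the surface. After three weeks at 25° C. to 30° C. in a greenhouse, effects were graded on criteria from an earlier test.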

[22] = system: green foxtail; experiment: Test Example 4: herbicidal effect by soil treatment (Table 19, symbol G); type: in vivo, green foxtail (Setaria viridis); conditions: amount of applied herbicide 320 g/ha
Procedure, shortened: as §5

[23] = system: barnyard grass; experiment: Test Example 4: herbicidal effect by soil treatment (Table 19, symbol H); type: in vivo, barnyard grass (Echinochloa crus-galli); conditions: amount of applied herbicide 320 g/ha
Procedure, shortened: as §5

[24] = system: wild oat; experiment: Test Example 4: herbicidal effect by soil treatment (Table 19, symbol I); type: in vivo, wild oat (Avena fatua); conditions: amount of applied herbicide 320 g/ha
Procedure, shortened: as §5

[25] = system: blackgrass; experiment: Test Example 4: herbicidal effect by soil treatment (Table 19, symbol J); type: in vivo, blackgrass (Alopecurus myosuroides); conditions: amount of applied herbicide 320 g/ha
Procedure, shortened: as §5

[26] = system: Italian ryegrass; experiment: Test Example 4: herbicidal effect by soil treatment (Table 19, symbol K); type: in vivo, Italian ryegrass (Lolium multiflorum); conditions: amount of applied herbicide 320 g/ha
Procedure, shortened: as §5

[27] = system: windgrass; experiment: Test Example 4: herbicidal effect by soil treatment (Table 19, symbol L); type: in vivo, windgrass (Apera spica-venti); conditions: amount of applied herbicide 320 g/ha
Procedure, shortened: as §5

[28] = system: velvetleaf; experiment: Test Example 4: herbicidal effect by soil treatment (Table 19, symbol M); type: in vivo, velvetleaf (Abutilon theophrasti); conditions: amount of applied herbicide 320 g/ha
Procedure, shortened: as §5

[29] = system: redroot pigweed; experiment: Test Example 4: herbicidal effect by soil treatment (Table 19, symbol N); type: in vivo, redroot pigweed (Amaranthus retroflexus); conditions: amount of applied herbicide 320 g/ha
Procedure, shortened: as §5

[30] = system: lambsquarters; experiment: Test Example 4: herbicidal effect by soil treatment (Table 19, symbol O); type: in vivo, lambsquarters (Chenopodium album); conditions: amount of applied herbicide 320 g/ha
Procedure, shortened: as §5

[31] = system: chickweed; experiment: Test Example 4: herbicidal effect by soil treatment (Table 19, symbol P); type: in vivo, common chickweed (Stellaria media); conditions: amount of applied herbicide 320 g/ha
Procedure, shortened: as §5

[32] = system: persian speedwell; experiment: Test Example 4: herbicidal effect by soil treatment (Table 19, symbol R); type: in vivo, Persian speedwell (Veronica persica); conditions: amount of applied herbicide 320 g/ha
Procedure, shortened: as §5

COCCOCOc1c(C)nn(C)c(=O)c1-c1c(-c2ccc(OCC(=O)OC)cc2)sc2ccccc12 [1-233]
effect on southern crabgrass (F) [1]: 0 (Herbicidal rate of 5% or less (almost no effect)) | effect on green foxtail (G) [2]: 0 (Herbicidal rate of 5% or less (almost no effect)) | effect on barnyard grass (H) [3]: 0 (Herbicidal rate of 5% or less (almost no effect)) | effect on wild oat (I) [4]: 0 (Herbicidal rate of 5% or less (almost no effect)) | effect on blackgrass (J) [5]: 0 (Herbicidal rate of 5% or less (almost no effect)) | effect on Italian ryegrass (K) [6]: 0 (Herbicidal rate of 5% or less (almost no effect)) | effect on windgrass (L) [7]: 0 (Herbicidal rate of 5% or less (almost no effect)) | effect on velvetleaf (M) [8]: 0 (Herbicidal rate of 5% or less (almost no effect)) | effect on lambsquarters (O) [9]: 2 (Herbicidal rate of 20% or more and less than 40%) | effect on false cleavers (Q) [10]: 0 (Herbicidal rate of 5% or less (almost no effect)) | effect on persian speedwell (R) [11]: 0 (Herbicidal rate of 5% or less (almost no effect))

CCCC(=O)Oc1c(C)nn(C)c(=O)c1-c1c(-c2ccc(F)c(Cl)c2)sc2ccc(F)cc12 [2-353]
Herbicidal effect on A: late watergrass (grade 0-5) [12]: 2 (Herbicidal rate of 20% or more and less than 40%) | Herbicidal effect on B: Japanese bulrush (grade 0-5) [13]: 0 (Herbicidal rate of 5% or less (almost no effect)) | Herbicidal effect on C: oval-leafed pondweed (grade 0-5) [14]: 0 (Herbicidal rate of 5% or less (almost no effect)) | herbicidal effect rating, A: late watergrass [15]: 4 (Herbicidal rate of 70% or more and less than 90%) | herbicidal effect rating, B: Japanese bulrush [16]: 3 (Herbicidal rate of 40% or more and less than 70%) | herbicidal effect rating, C: oval-leafed pondweed [17]: 3 (Herbicidal rate of 40% or more and less than 70%) | herbicidal effect on H: barnyard grass [18]: 5 (Herbicidal rate of 90% or more (almost completely withered)) | herbicidal effect on D: Chinese sprangletop [19]: 5 (Herbicidal rate of 90% or more (almost completely withered)) | herbicidal effect on E: rice flat sedge [20]: 5 (Herbicidal rate of 90% or more (almost completely withered)) | herbicidal effect, F: southern crabgrass [21]: 3 (Herbicidal rate of 40% or more and less than 70%) | herbicidal effect, G: green foxtail [22]: 1 (Herbicidal rate of 5% or more and less than 20%) | herbicidal effect, H: barnyard grass [23]: 1 (Herbicidal rate of 5% or more and less than 20%) | herbicidal effect, I: wild oat [24]: 0 (Herbicidal rate of 5% or less (almost no effect)) | herbicidal effect, J: blackgrass [25]: 0 (Herbicidal rate of 5% or less (almost no effect)) | herbicidal effect, K: Italian ryegrass [26]: 4 (Herbicidal rate of 70% or more and less than 90%) | herbicidal effect, L: windgrass [27]: 3 (Herbicidal rate of 40% or more and less than 70%) | herbicidal effect, M: velvetleaf [28]: 2 (Herbicidal rate of 20% or more and less than 40%) | herbicidal effect, N: redroot pigweed [29]: 4 (Herbicidal rate of 70% or more and less than 90%) | herbicidal effect, O: lambsquarters [30]: 4 (Herbicidal rate of 70% or more and less than 90%) | herbicidal effect, P: chickweed [31]: 3 (Herbicidal rate of 40% or more and less than 70%) | herbicidal effect, R: persian speedwell [32]: 3 (Herbicidal rate of 40% or more and less than 70%)
